According to patent US7964594B1, “Amino oxazine derivatives” (Hoffmann-La Roche Inc., priority 2009, dated 2011):

Each molecule was assayed against T1, BACE2 (Rattus norvegicus, UniProt Q6IE75) (assay: Assay for BACE inhibition by measuring cellular TMEM27 cleavage (INS-TMEM27 cells, ELISA of shed TMEM27)). Details: inhibition of human TMEM27 cleavage by endogenous cellular BACE2 in Ins1e rat cell line; ELISA of culture medium.
T1 construct: endogenous cellular BACE2 in the Ins1e rat cell line; endogenous in cells; host or cells: INS-TMEM27 (INS1e-derived rat insulinoma cell line with doxycycline-inducible full-length hTMEM27)
T1 sequence (Q6IE75 63-514): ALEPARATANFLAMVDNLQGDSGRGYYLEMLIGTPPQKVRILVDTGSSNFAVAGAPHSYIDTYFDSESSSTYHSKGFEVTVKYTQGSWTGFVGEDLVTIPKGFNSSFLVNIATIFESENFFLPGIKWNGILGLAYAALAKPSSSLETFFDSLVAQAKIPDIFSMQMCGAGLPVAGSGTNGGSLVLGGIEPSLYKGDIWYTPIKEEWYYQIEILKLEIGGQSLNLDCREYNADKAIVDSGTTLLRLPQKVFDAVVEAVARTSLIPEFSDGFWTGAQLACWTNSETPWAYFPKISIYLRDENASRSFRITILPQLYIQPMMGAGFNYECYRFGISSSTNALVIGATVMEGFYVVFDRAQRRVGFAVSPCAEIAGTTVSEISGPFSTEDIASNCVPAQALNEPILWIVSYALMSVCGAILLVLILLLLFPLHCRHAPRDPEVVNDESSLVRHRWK
Assay type: cell-based
Excerpt: Assay for BACE Inhibition by Measuring Cellular TMEM27 Cleavage
The assay uses the principle of inhibition of human TMEM27 cleavage by endogenous cellular BACE2 in the Ins1e rat cell line and shedding from the cell surface into the culture medium, followed by detection in an ELISA assay. Inhibition of BACE2 prevents the cleavage and shedding in a dose-dependent manner.
The stable cell line “INS-TMEM27” represents an INS1e-derived cell line with inducible expression (using the TetOn system) of full-length hTMEM27 in a doxycycline-dependent manner. The cells were cultured throughout the experiment in RPMI1640+Glutamax (Invitrogen) Penicillin/Streptomycin, 10% Fetal bovine serum, […], […], 100 micrograms/ml G418 and 100 microgram/ml hygromycin and were grown in adherent culture at 37° C. in a standard CO2 cell culture incubator.
INS-TMEM27 cells were seeded in 96-well plates. After 2 days in culture, BACE2 inhibitor was added in a range of concentrations as required by the assay and after a further two hours, doxycycline was added to a final concentration of 500 ng/ml. The cells were incubated for a further 46 hours and the supernatant harvested for detection of shed TMEM27.
An ELISA assay (using a pair of mouse anti-human-TMEM27 antibodies, raised against the extracellular domain of TMEM27) was used for detection of TMEM27 in the culture medium. An IC50 for BACE2 inhibition was calculated using the ELISA readout for each inhibitor concentration with standard curve-fitting software XLfit (IDBS) for the Excel spreadsheet program.
Work on C[C@@]1(c2cc(NC(=O)C3(C(F)(F)F)CC3)ccc2F)CCOC(N)=N1 [Example 58, 1-Trifluoromethyl-cyclopropanecarboxylic acid [3-((S)-2-amino-4-methyl-5,6-dihydro-4H-[1,3]oxazin-4-yl)-4-fluoro-phenyl]-amide] yielded an IC50 of 700 nM.
Molecule C[C@@]1(c2cc(NC(=O)c3cnc(Cl)cn3)ccc2F)CCOC(N)=N1 [Example 14] has an IC50 of 190 nM.
In the case of C[C@@]1(c2cc(NC(=O)c3ncc(F)cc3F)ccc2F)CCOC(N)=N1 [Example 33, 3,5-Difluoro-pyridine-2-carboxylic acid [3-((S)-2-amino-4-methyl-5,6-dihydro-4H-[1,3]oxazin-4-yl)-4-fluoro-phenyl]-amide], the IC50 is reported as 7 nM.
With C[C@]1(c2cc(NC(=O)c3ccccn3)ccc2F)N=C(N)OCC12CC2 [Example 43, Pyridine-2-carboxylic acid [3-((S)-6-amino-8-methyl-5-oxa-7-aza-spiro[2.5]oct-6-en-8-yl)-4-fluoro-phenyl]-amide] the IC50 was 18 nM.
For CC[C@@]1(c2cc(NC(=O)c3ncc(Cl)cc3Cl)ccc2F)CCOC(N)=N1 [Example 22], the IC50 was 7 nM.
In the case of Cc1ccc(C(=O)Nc2ccc(F)c([C@]3(C)CCOC(N)=N3)c2)nc1 [Example 15], the IC50 is reported as 4.5 nM.
In the case of C[C@]1(c2cc(NC(=O)c3ncc(C(F)(F)F)cc3Cl)ccc2F)N=C(N)OCC12CC2 [Example 50, (S)—N-(3-(6-Amino-8-methyl-5-oxa-7-azaspiro[2.5]oct-6-en-8-yl)-4-fluorophenyl)-3-chloro-5-(trifluoromethyl)picolinamide], the IC50 is reported as 190 nM.
COc1ccc(C(=O)Nc2ccc(F)c([C@]3(C)CCOC(N)=N3)c2)nc1 [Example 30, 5-Methoxy-pyridine-2-carboxylic acid [3-((S)-2-amino-4-methyl-5,6-dihydro-4H-[1,3]oxazin-4-yl)-4-fluoro-phenyl]-amide] showed an IC50 of 12 nM.
For NC1=N[C@@]2(c3cc(NC(=O)c4ccc(Cl)cn4)ccc3F)COC[C@H]2CO1 [Example 65, 5-Chloro-pyridine-2-carboxylic acid [3-((4aS,7aS)-2-amino-4a,5-dihydro-4H-furo[3,4-d][1,3]oxazin-7a-yl)-4-fluoro-phenyl]-amide], the IC50 was 60 nM.
In the case of C[C@]1(c2cc(NC(=O)c3ccc(OC(F)F)cn3)ccc2F)N=C(N)OCC12CC2 [Example 42, 5-Difluoromethoxy-pyridine-2-carboxylic acid [3-((S)-6-amino-8-methyl-5-oxa-7-aza-Spiro[2.5]oct-6-en-8-yl)-4-fluoro-phenyl]-amide], the IC50 is reported as 210 nM.
In the case of C[C@@]1(c2cc(NC(=O)C3CC3(F)F)ccc2F)CCOC(N)=N1 (stereo partly drawn) [Example 46, 2,2-Difluoro-cyclopropanecarboxylic acid [3-((S)-2-amino-4-methyl-5,6-dihydro-4H-[1,3]oxazin-4-yl)-4-fluoro-phenyl]-amide], the IC50 is reported as 70 nM.
For C[C@]1(c2cc(NC(=O)c3ncccc3F)ccc2F)N=C(N)OCC12CC2 [Example 37, 3-Fluoro-pyridine-2-carboxylic acid [3-((S)-6-amino-8-methyl-5-oxa-7-aza-spiro[2.5]oct-6-en-8-yl)-4-fluoro-phenyl]-amide], the IC50 was 40 nM.
In the case of C[C@@]1(c2cc(NC(=O)c3ncccc3F)ccc2F)CCOC(N)=N1 [Example 6, 3-Fluoro-pyridine-2-carboxylic acid [3-((S)-2-amino-4-methyl-5,6-dihydro-4H-[1,3]oxazin-4-yl)-4-fluoro-phenyl]-amide], the IC50 is reported as 19 nM.
C[C@@]1(c2cc(NC(=O)c3ncccc3C(F)(F)F)ccc2F)CCOC(N)=N1 [Example 16, 3-Trifluoromethyl-pyridine-2-carboxylic acid [3-((S)-2-amino-4-methyl-5,6-dihydro-4H-[1,3]oxazin-4-yl)-4-fluoro-phenyl]-amide] gave an IC50 of 22 nM.
Work on C[C@@]1(c2cc(NC(=O)c3nccc4ccsc34)ccc2F)CCOC(N)=N1 [Example 11, Thieno[2,3-c]pyridine-7-carboxylic acid [3-((S)-2-amino-4-methyl-5,6-dihydro-4H-[1,3]oxazin-4-yl)-4-fluoro-phenyl]-amide] yielded an IC50 of 28 nM.
With C[C@]1(c2cc(NC(=O)c3ncccc3C(F)(F)F)ccc2F)N=C(N)OCC12CC2 [Example 51, (S)—N-(3-(6-Amino-8-methyl-5-oxa-7-azaspiro[2.5]oct-6-en-8-yl)-4-fluorophenyl)-3-(trifluoromethyl)picolinamide] the IC50 was 73 nM.
C[C@@]1(c2cc(NC(=O)c3cc(Cl)ccn3)ccc2F)CCOC(N)=N1 [Example 9] was tested, and the IC50 was 143 nM.
In the case of C[C@@]1(c2cc(NC(=O)c3ncccc3OCC(F)(F)F)ccc2F)CCOC(N)=N1 [Example 60, (S)—N-(3-(2-Amino-4-methyl-5,6-dihydro-4H-1,3-oxazin-4-yl)-4-fluorophenyl)-3-(2,2,2-trifluoroethoxy)picolinamide], the IC50 is reported as 143 nM.
Molecule Cc1c(C(=O)Nc2ccc(F)c([C@@]3(C)N=C(N)OCC34CC4)c2)noc1Cl [Example 57, (S)—N-(3-(6-Amino-8-methyl-5-oxa-7-azaspiro[2.5]oct-6-en-8-yl)-4-fluorophenyl)-5-chloro-4-methylisoxazole-3-carboxamide] has an IC50 of 6410 nM.
For Cc1nc(C(=O)Nc2ccc(F)c([C@]3(C)CCOC(N)=N3)c2)co1 [Example 8], the IC50 was 19 nM.
C[C@]1(c2cc(NC(=O)c3ccc(F)cn3)ccc2F)N=C(N)OCC12CC2 [Example 40, 5-Fluoro-pyridine-2-carboxylic acid [3-((S)-6-amino-8-methyl-5-oxa-7-aza-spiro[2.5]oct-6-en-8-yl)-4-fluoro-phenyl]-amide] showed an IC50 of 39 nM.
Molecule CC[C@@]1(c2cc(NC(=O)c3ncc(Cl)cc3C)ccc2F)CCOC(N)=N1 [Example 23] has an IC50 of 9 nM.
C[C@@]1(c2cc(NC(=O)c3ncc(Cl)cc3Cl)ccc2F)CCOC(N)=N1 [Example 1, 3,5-Dichloro-pyridine-2-carboxylic acid [3-((S)-2-amino-4-methyl-5,6-dihydro-4H-[1,3]oxazin-4-yl)-4-fluoro-phenyl]-amide] gave an IC50 of 4 nM.
For C[C@@]1(c2cc(NC(=O)C(F)C(F)(F)F)ccc2F)CCOC(N)=N1 (stereo partly drawn) [Example 45, N-[3-((S)-2-Amino-4-methyl-5,6-dihydro-4H-[1,3]oxazin-4-yl)-4-fluoro-phenyl]-2,3,3,3-tetrafluoro-propionamide], the IC50 was 400 nM.
In the case of C[C@]1(c2cc(NC(=O)c3ncc(Cl)cn3)ccc2F)N=C(N)OCC12CC2 [Example 44, 5-Chloro-pyrimidine-2-carboxylic acid [3-((S)-6-amino-8-methyl-5-oxa-7-aza-spiro[2.5]oct-6-en-8-yl)-4-fluoro-phenyl]-amide], the IC50 is reported as 7.1 nM.
C[C@@]1(c2cc(NC(=O)c3ccc(Cl)s3)ccc2F)CCOC(N)=N1 [Example 10, 5-Chloro-thiophene-2-carboxylic acid [3-((S)-2-amino-4-methyl-5,6-dihydro-4H-[1,3]oxazin-4-yl)-4-fluoro-phenyl]-amide] gave an IC50 of 915 nM.
For C[C@@]1(c2cc(NC(=O)c3cc4ccccc4s3)ccc2F)CCOC(N)=N1 [Example 13, Benzo[b]thiophene-2-carboxylic acid [3-((S)-2-amino-4-methyl-5,6-dihydro-4H-[1,3]oxazin-4-yl)-4-fluoro-phenyl]-amide], the IC50 was 52 nM.
Cc1conc1C(=O)Nc1ccc(F)c([C@]2(C)CCOC(N)=N2)c1 [Example 63] was tested, and the IC50 was 104 nM.
For C[C@]1(c2cc(NC(=O)c3ncc(F)cc3F)ccc2F)N=C(N)OCC12CC2 [Example 49, (S)—N-(3-(6-Amino-8-methyl-5-oxa-7-azaspiro[2.5]oct-6-en-8-yl)-4-fluorophenyl)-3,5-difluoropicolinamide], the IC50 was 14 nM.
For C[C@]1(c2cc(NC(=O)C3CC3(F)F)ccc2F)N=C(N)OCC12CC2 (mixture of isomers) [Example 55, N-(3-((S)-6-Amino-8-methyl-5-oxa-7-azaspiro[2.5]oct-6-en-8-yl)-4-fluorophenyl)-2,2-difluorocyclopropanecarboxamide], the IC50 was 2100 nM.
C[C@]1(c2cc(NC(=O)c3ncc(Cl)cc3Cl)ccc2F)N=C(N)OCC12CC2 [Example 53, (S)—N-(3-(6-Amino-8-methyl-5-oxa-7-azaspiro[2.5]oct-6-en-8-yl)-4-fluorophenyl)-3,5-dichloropicolinamide] was tested, and the IC50 was 6 nM.
C[C@]1(c2cc(NC(=O)C3(C(F)(F)F)CC3)ccc2F)N=C(N)OCC12CC2 [Example 54, (S)—N-(3-(6-Amino-8-methyl-5-oxa-7-azaspiro[2.5]oct-6-en-8-yl)-4-fluorophenyl)-1-(trifluoromethyl)cyclopropanecarboxamide] was tested, and the IC50 was 810 nM.
